Data reported in patent publication US12187816B2, “Macrocyclic compounds and methods of use thereof” (Genentech, Inc., priority 2020, dated 2025).
Starred links: 1 amine or outer side, 2 acyl side, 3 side chain; linkers in the order of their positions; H or OH if unused. Non-standard residues stand in square brackets, D forms with d. Residues, ends and D or L forms follow the SMILES beside them. *: point of attachment. JQ1acid = Cc1sc2c(c1C)C(c1ccc(Cl)cc1)=N[C@@H](CC(=O)*)c1nnc(C)n1-2; X1 = CC(C)(C)[C@@H](C(=O)[*:2])n1cc(COCCN[*:1])nn1; X13 = Cc1ncsc1-c1ccc(C[C@@H](N[*:1])C(=O)[*:2])cc1; X9 = O=C(C[C@@H](Cc1ccc(-c2ccccc2)cc1)N[*:1])[*:2]; dBip = N[C@H](Cc1ccc(-c2ccccc2)cc1)C(=O)O; dLys(N3) = [N-]=[N+]=NCCCC[C@@H](N)C(=O)O; Ile(3-Me) = CCC(C)(C)[C@H](N)C(=O)O; Hyp = O=C(O)[C@@H]1C[C@@H](O)CN1; Tle = CC(C)(C)[C@H](N)C(=O)O; X8 = CN(CCOCC(=O)[*:2])[*:1]; dDap = NC[C@@H](N)C(=O)O; Ahp = NCCCCCCC(=O)O; Ahx = NCCCCCC(=O)O; AEA = NCCOCC(=O)O; GABA = NCCCC(=O)O; βAla = NCCC(=O)O

target: T1, BRD4 (Homo sapiens, UniProt O60885); assay: BRD4 degradation assay in EOL1 cells (immunofluorescence imaging); type: cell-based; settings: EoL-1 eosinophilic leukemia cells, 4 hours treatment, nuclear BRD4 immunofluorescence
T1 construct: Mean 488 intensity of BRD4 quantitated in nuclear region; endogenous in cells; host or cells: EoL-1 eosinophilic leukemia cells
In short: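 EoL-1 cells treated 4 h at 37 °C with 20-point 1/3 serial dilutions (0.2% DMSO) in RPMI/10% FBS, then fixed and immunostained for BRD4. Mean nuclear BRD4 intensity measured by high-content imaging, with Hoechst nuclear masking. DMSO and no-primary-antibody controls define 0 and 100%; DC50 and maximal effect from dose-response fit.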

| Compound | DC50 [nM] |
| --- | --- |
| CCC(C)(C)[C@@H]1NC(=O)COCCNC(=O)[C@@H](CNC(=O)C[C@@H]2N=C(c3ccc(Cl)cc3)c3c(sc(C)c3C)-n3c(C)nnc32)NC(=O)[C@@H](C)NC(=O)[C@@H](Cc2ccc(-c3ccccc3)cc2)NC(=O)[C@@H]2C[C@@H](O)CN2C1=O [Compound 57] (cyclo([AEA][Ile(3-Me)][Hyp][dBip][dA][dDap](JQ1acid))) | < 50 |
| Cc1sc2c(c1C)C(c1ccc(Cl)cc1)=N[C@@H](CC(=O)NC[C@H]1NC(=O)[C@@H](C)NC(=O)[C@@H](Cc3ccc(-c4ccccc4)cc3)NC(=O)[C@@H]3C[C@@H](O)CN3C(=O)[C@H](C(C)(C)C)NC(=O)COCCNC1=O)c1nnc(C)n1-2 [Compound 58] (cyclo([AEA][Tle][Hyp][dBip][dA][dDap](JQ1acid))) | < 50 |
| Cc1sc2c(c1C)C(c1ccc(Cl)cc1)=N[C@@H](CC(=O)NC[C@H]1NC(=O)[C@@H](C)NC(=O)[C@@H](Cc3ccc(-c4ccccc4)cc3)NC(=O)[C@@H]3C[C@@H](O)CN3C(=O)[C@H](C(C)(C)C)NC(=O)CCCNC1=O)c1nnc(C)n1-2 [Compound 59] (cyclo([GABA][Tle][Hyp][dBip][dA][dDap](JQ1acid))) | < 1000 |
| Cc1sc2c(c1C)C(c1ccc(Cl)cc1)=N[C@@H](CC(=O)NC[C@H]1NC(=O)[C@@H](C)NC(=O)[C@@H](Cc3ccc(-c4ccccc4)cc3)NC(=O)[C@@H]3C[C@@H](O)CN3C(=O)[C@H](C(C)(C)C)NC(=O)CCCCCNC1=O)c1nnc(C)n1-2 [Compound 60] (cyclo([Ahx][Tle][Hyp][dBip][dA][dDap](JQ1acid))) | < 50 |
| Cc1sc2c(c1C)C(c1ccc(Cl)cc1)=N[C@@H](CC(=O)NC[C@H]1NC(=O)[C@@H](C)NC(=O)[C@@H](Cc3ccc(-c4ccccc4)cc3)NC(=O)[C@@H]3C[C@@H](O)CN3C(=O)[C@H](C(C)(C)C)NC(=O)CCCCCCNC1=O)c1nnc(C)n1-2 [Compound 61] (cyclo([Ahp][Tle][Hyp][dBip][dA][dDap](JQ1acid))) | < 50 |
| Cc1sc2c(c1C)C(c1ccc(Cl)cc1)=N[C@@H](CC(=O)NC[C@H]1NC(=O)CCNC(=O)[C@@H](Cc3ccc(-c4ccccc4)cc3)NC(=O)[C@@H]3C[C@@H](O)CN3C(=O)[C@H](C(C)(C)C)NC(=O)COCCNC1=O)c1nnc(C)n1-2 [Compound 62] (cyclo([AEA][Tle][Hyp][dBip][βAla][dDap](JQ1acid))) | < 1000 |
| Cc1sc2c(c1C)C(c1ccc(Cl)cc1)=N[C@@H](CC(=O)NC[C@H]1NC(=O)[C@@H](C)NC(=O)[C@@H](Cc3ccc(-c4ccccc4)cc3)NC(=O)[C@@H]3C[C@@H](O)CN3C(=O)[C@H](C(C)(C)C)NC(=O)COCCN(C)C1=O)c1nnc(C)n1-2 [Compound 63] (cyclo([Hyp][dBip][dA][dDap](JQ1acid)[X8][Tle])) | < 50 |
| Cc1sc2c(c1C)C(c1ccc(Cl)cc1)=N[C@@H](CC(=O)NC[C@H]1NC(=O)CNC(=O)C[C@@H](Cc3ccc(-c4ccccc4)cc3)NC(=O)[C@@H]3C[C@@H](O)CN3C(=O)[C@H](C(C)(C)C)NC(=O)COCCNC1=O)c1nnc(C)n1-2 [Compound 64] (cyclo([AEA][Tle][Hyp][X9]G[dDap](JQ1acid))) | > 20000 |
| Cc1sc2c(c1C)C(c1ccc(Cl)cc1)=N[C@@H](CC(=O)NC[C@H]1NC(=O)[C@@H](C)NC(=O)C[C@@H](Cc3ccc(-c4ccccc4)cc3)NC(=O)[C@@H]3C[C@@H](O)CN3C(=O)[C@H](C(C)(C)C)NC(=O)COCCNC1=O)c1nnc(C)n1-2 [Compound 65] (cyclo([AEA][Tle][Hyp][X9][dA][dDap](JQ1acid))) | > 20000 |
| Cc1sc2c(c1C)C(c1ccc(Cl)cc1)=N[C@@H](CC(=O)NC[C@H]1NC(=O)[C@@H](CCC(N)=O)NC(=O)[C@@H](Cc3ccc(-c4ccccc4)cc3)NC(=O)[C@@H]3C[C@@H](O)CN3C(=O)[C@H](C(C)(C)C)NC(=O)COCCNC1=O)c1nnc(C)n1-2 [Compound 66] (cyclo([AEA][Tle][Hyp][dBip][dQ][dDap](JQ1acid))) | < 1000 |
| Cc1sc2c(c1C)C(c1ccc(Cl)cc1)=N[C@@H](CC(=O)NC[C@H]1CCCNC(=O)[C@@H](Cc3ccc(-c4ccccc4)cc3)NC(=O)[C@@H]3C[C@@H](O)CN3C(=O)[C@H](C(C)(C)C)NC(=O)COCCNC1=O)c1nnc(C)n1-2 [Compound 67] | < 50 |
| Cc1ncsc1-c1ccc([C@H]2NC(=O)[C@@H]3C[C@@H](O)CN3C(=O)[C@H](C(C)(C)C)NC(=O)CSC[C@H](C(N)=O)NC(=O)[C@@H](NC(=O)C[C@@H]3N=C(c4ccc(Cl)cc4)c4c(sc(C)c4C)-n4c(C)nnc43)NC(=O)CNC2=O)cc1 [Compound 68] | > 20000 |
| Cc1ncsc1-c1ccc([C@H]2NC(=O)[C@@H]3C[C@@H](O)CN3C(=O)[C@H](C(C)(C)C)NC(=O)CSC[C@H](C(N)=O)NC(=O)[C@H](NC(=O)C[C@@H]3N=C(c4ccc(Cl)cc4)c4c(sc(C)c4C)-n4c(C)nnc43)NC(=O)CNC2=O)cc1 [Compound 69] | > 20000 |
| Cc1ncsc1-c1ccc(C[C@H]2NC(=O)[C@@H]3C[C@@H](O)CN3C(=O)[C@H](C(C)(C)C)NC(=O)COCCNC(=O)[C@@H](CNC(=O)C[C@@H]3N=C(c4ccc(Cl)cc4)c4c(sc(C)c4C)-n4c(C)nnc43)NC(=O)[C@@H](C)NC2=O)cc1 [Compound 70] (cyclo([AEA][Tle][Hyp][X13][dA][dDap](JQ1acid))) | < 50 |
| Cc1sc2c(c1C)C(c1ccc(Cl)cc1)=N[C@@H](CC(=O)NC[C@H]1NC(=O)[C@@H](CCCCN=[N+]=[N-])NC(=O)[C@@H](Cc3ccc(-c4ccccc4)cc3)NC(=O)[C@@H]3C[C@@H](O)CN3C(=O)[C@H](C(C)(C)C)NC(=O)COCCNC1=O)c1nnc(C)n1-2 [Compound 71] (cyclo([AEA][Tle][Hyp][dBip][dLys(N3)][dDap](JQ1acid))) | < 1000 |
| Cc1sc2c(c1C)C(c1ccc(Cl)cc1)=N[C@@H](CC(=O)NC[C@H]1NC(=O)[C@@H](CCCCN)NC(=O)[C@@H](Cc3ccc(-c4ccccc4)cc3)NC(=O)[C@@H]3C[C@@H](O)CN3C(=O)[C@H](C(C)(C)C)NC(=O)COCCNC1=O)c1nnc(C)n1-2 [Compound 72] (cyclo([AEA][Tle][Hyp][dBip][dK][dDap](JQ1acid))) | < 1000 |
| Cc1sc2c(c1C)C(c1ccc(Cl)cc1)=N[C@@H](CC(=O)NC[C@H]1NC(=O)CNC(=O)[C@@H](Cc3ccc(-c4ccccc4)cc3)NC(=O)[C@@H]3C[C@@H](O)CN3C(=O)[C@H](C(C)(C)C)n3cc(nn3)COCCNC1=O)c1nnc(C)n1-2 [Compound 200] | < 50 |
| Cc1sc2c(c1C)C(c1ccc(Cl)cc1)=N[C@@H](CC(=O)NC[C@H]1NC(=O)[C@@H](C)NC(=O)[C@@H](Cc3ccc(-c4ccccc4)cc3)NC(=O)[C@@H]3C[C@@H](O)CN3C(=O)[C@H](C(C)(C)C)n3cc(nn3)COCCNC1=O)c1nnc(C)n1-2 [Compound 201] | < 50 |
| Cc1sc2c(c1C)C(c1ccc(Cl)cc1)=N[C@@H](CC(=O)NC[C@H]1NC(=O)[C@@H](C(C)C)NC(=O)[C@@H](Cc3ccc(-c4ccccc4)cc3)NC(=O)[C@@H]3C[C@@H](O)CN3C(=O)[C@H](C(C)(C)C)n3cc(nn3)COCCNC1=O)c1nnc(C)n1-2 [Compound 202] (cyclo([Hyp][dBip][dV][dDap](JQ1acid)[X1])) | < 50 |
| Cc1sc2c(c1C)C(c1ccc(Cl)cc1)=N[C@@H](CC(=O)N(C)C[C@H]1NC(=O)CNC(=O)[C@@H](Cc3ccc(-c4ccccc4)cc3)NC(=O)[C@@H]3C[C@@H](O)CN3C(=O)[C@H](C(C)(C)C)n3cc(nn3)COCCNC1=O)c1nnc(C)n1-2 [Compound 203] | < 1000 |
| Cc1sc2c(c1C)C(c1ccc(Cl)cc1)=N[C@@H](CC(=O)N(C)C[C@H]1NC(=O)CNC(=O)[C@@H](Cc3ccc(-c4ccccc4)cc3)NC(=O)[C@@H]3C[C@@H](O)CN3C(=O)[C@H](C(C)(C)C)n3cc(nn3)COCCN(C)C1=O)c1nnc(C)n1-2 [Compound 204] | > 20000 |
| Cc1sc2c(c1C)C(c1ccc(Cl)cc1)=N[C@@H](CC(=O)NC[C@H]1NC(=O)CNC(=O)[C@@H](Cc3ccc(-c4ccccc4)cc3)NC(=O)[C@@H]3C[C@@H](O)CN3C(=O)[C@H](C(C)(C)C)n3cc(nn3)COCCN(C)C1=O)c1nnc(C)n1-2 [Compound 205] | < 50 |
| Cc1sc2c(c1C)C(c1ccc(Cl)cc1)=N[C@@H](CC(=O)NC[C@H]1CCCNC(=O)[C@@H](Cc3ccc(-c4ccccc4)cc3)NC(=O)[C@@H]3C[C@@H](O)CN3C(=O)[C@H](C(C)(C)C)n3cc(nn3)COCCNC1=O)c1nnc(C)n1-2 [Compound 206] | < 50 |
| Cc1sc2c(c1C)C(c1ccc(Cl)cc1)=N[C@@H](CC(=O)NC[C@H]1CCCNC(=O)[C@@H](Cc3ccc(-c4ccccc4)cc3)NC(=O)[C@@H]3C[C@@H](O)CN3C(=O)[C@H](C(C)(C)C)n3cc(nn3)C3(CC3)CNC1=O)c1nnc(C)n1-2 [Compound 207] | < 50 |
| Cc1sc2c(c1C)C(c1ccc(Cl)cc1)=N[C@@H](CC(=O)NC[C@H]1CCCNC(=O)[C@@H](Cc3ccc(-c4ccccc4)cc3)NC(=O)[C@@H]3C[C@@H](O)CN3C(=O)[C@H](C(C)(C)C)n3cc(nn3)C3(CC3)CNC(=O)CNC1=O)c1nnc(C)n1-2 [Compound 208] | < 1000 |
